According to ChEMBL document CHEMBL1201862, “PubChem BioAssay data set” (2004):
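Protocol summary: plate cells (96-well), add compound at 5 concentrations, incubate 48 h, interpolate endpoints linearly. GI50: concentration for 50% inhibition of growth.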 Calls of active or inactive are those of the source. Rule as the data show it: active = GI50 up to about 1.1 µM and inactive = higher.

Legend:
Assay in all cases: inhibition of tumour cell growth, NCI panel, 48 h
HL-60 = system: HL-60
SF-295 = system: SF-295
SF-539 = system: SF-539
LXFL 529 = system: LXFL 529
A498 = system: A498
HT-29 = system: HT-29
HOP-92 = system: HOP-92
SF-268 = system: SF-268
UACC-62 = system: UACC-62
SK-MEL-2 = system: SK-MEL-2
CAKI-1 = system: CAKI-1
A549 = system: A549
DMS-114 = system: DMS-114
U-251 = system: U-251
SNB-19 = system: SNB-19
HOP-62 = system: HOP-62
NCI-H226 = system: NCI-H226
OVCAR-5 = system: OVCAR-5
SNB-78 = system: SNB-78
DU-145 = system: DU-145

| Compound | GI50 (HL-60) | GI50 (SF-295) | GI50 (SF-539) | GI50 (LXFL 529) | GI50 (A498) | GI50 (HT-29) | GI50 (HOP-92) | GI50 (SF-268) | GI50 (UACC-62) | GI50 (SK-MEL-2) | GI50 (CAKI-1) | GI50 (A549) | GI50 (DMS-114) | GI50 (U-251) | GI50 (SNB-19) | GI50 (HOP-62) | GI50 (NCI-H226) | GI50 (OVCAR-5) | GI50 (SNB-78) | GI50 (DU-145) |
| --- | --- | --- | --- | --- | --- | --- | --- | --- | --- | --- | --- | --- | --- | --- | --- | --- | --- | --- | --- | --- |
| NC(=O)C12C3C4C1C1C2C3C41C(N)=O (stereo unspecified) | > 100 µM (inactive) | > 100 µM (inactive) | > 100 µM (inactive) | > 100 µM (inactive) | > 100 µM (inactive) | > 100 µM (inactive) | > 100 µM (inactive) | > 100 µM (inactive) | > 100 µM (inactive) | > 100 µM (inactive) | > 100 µM (inactive) | > 100 µM (inactive) | > 100 µM (inactive) | > 100 µM (inactive) | > 100 µM (inactive) | > 100 µM (inactive) | > 100 µM (inactive) | > 100 µM (inactive) | – | – |
| Cc1nc2ccccc2c(=O)n1/N=C(\N=N\c1ccc(Cl)cc1)c1cccc(-c2ccco2)c1 | 25.1 µM (inactive) | 48.5 µM (inactive) | 28.6 µM (inactive) | 25.3 µM (inactive) | 61.8 µM (inactive) | 34.3 µM (inactive) | 16.1 µM (inactive) | 19.7 µM (inactive) | 22.4 µM (inactive) | – | 25.5 µM (inactive) | 40.6 µM (inactive) | – | 27.5 µM (inactive) | – | 22.5 µM (inactive) | – | – | – | – |
| C=C1CC(CC)(CCN2C(=O)c3ccccc3C2=O)OC1=O (stereo unspecified) | 9.2 µM (inactive) | 29.2 µM (inactive) | 18.9 µM (inactive) | 13.6 µM (inactive) | 19.2 µM (inactive) | 14.1 µM (inactive) | – | 1.08 µM (active) | 13.3 µM (inactive) | 12.9 µM (inactive) | 2.09 µM (inactive) | 27.7 µM (inactive) | 19.2 µM (inactive) | > 10 µM (inactive) | > 10 µM (inactive) | 35.9 µM (inactive) | 13.8 µM (inactive) | – | – | – |
| C[N+](C)(C)CCOC(=O)/C=C/c1c[nH]cn1 | > 500 µM (inactive) | > 500 µM (inactive) | > 500 µM (inactive) | – | > 500 µM (inactive) | > 500 µM (inactive) | 492 µM (inactive) | > 500 µM (inactive) | > 500 µM (inactive) | > 500 µM (inactive) | > 500 µM (inactive) | > 500 µM (inactive) | > 500 µM (inactive) | > 500 µM (inactive) | > 500 µM (inactive) | > 500 µM (inactive) | > 500 µM (inactive) | > 356 µM (inactive) | > 500 µM (inactive) | – |
| NC1C[C@H](n2cc(/C=C/Br)c(=O)[nH]c2=O)C[C@@H]1CO (stereo partly specified) | > 100 µM (inactive) | > 100 µM (inactive) | > 100 µM (inactive) | 50.4 µM (inactive) | > 100 µM (inactive) | > 100 µM (inactive) | – | > 100 µM (inactive) | > 100 µM (inactive) | – | – | – | > 100 µM (inactive) | > 100 µM (inactive) | > 100 µM (inactive) | > 100 µM (inactive) | > 100 µM (inactive) | – | – | – |
| N=C(N)NCCCC(NCc1c2ccccc2nc2ccccc12)C(=O)O (stereo unspecified) | 11 µM (inactive) | 48 µM (inactive) | 33 µM (inactive) | 38.5 µM (inactive) | > 100 µM (inactive) | 18.9 µM (inactive) | 7.93 µM (inactive) | 47.6 µM (inactive) | 31.3 µM (inactive) | 41 µM (inactive) | 26.6 µM (inactive) | 37.2 µM (inactive) | 23.3 µM (inactive) | 47.2 µM (inactive) | 48.4 µM (inactive) | 37.1 µM (inactive) | > 81.8 µM (inactive) | > 100 µM (inactive) | – | > 100 µM (inactive) |
| O=C(O)c1cc2c(s1)C(=O)c1sccc1C2=O | 4.18 µM (inactive) | 2.26 µM (inactive) | 1.95 µM (inactive) | – | 17.5 µM (inactive) | 5.64 µM (inactive) | 16.3 µM (inactive) | 5.24 µM (inactive) | 2.08 µM (inactive) | 2.23 µM (inactive) | 12.4 µM (inactive) | 4.25 µM (inactive) | 3.34 µM (inactive) | 5.02 µM (inactive) | 5.48 µM (inactive) | 6.11 µM (inactive) | 19.6 µM (inactive) | 9.91 µM (inactive) | 0.264 µM (active) | 2.33 µM (inactive) |
| CC(=O)NS(=O)(=O)c1ccc(NC(=O)COC(=O)c2cccc3c(=O)c4ccccc4[nH]c23)cc1 | > 100 µM (inactive) | > 100 µM (inactive) | > 100 µM (inactive) | – | – | > 100 µM (inactive) | – | – | > 100 µM (inactive) | > 100 µM (inactive) | – | > 100 µM (inactive) | > 100 µM (inactive) | > 100 µM (inactive) | > 100 µM (inactive) | > 100 µM (inactive) | > 100 µM (inactive) | – | – | – |
| CCOC(=O)C(=Cc1cc(OC)ccc1OC)C(=O)OCC | 1.96 µM (inactive) | 12.4 µM (inactive) | 4.1 µM (inactive) | 3.26 µM (inactive) | 14.4 µM (inactive) | 3.85 µM (inactive) | 3.2 µM (inactive) | 5.36 µM (inactive) | 1.83 µM (inactive) | 4.75 µM (inactive) | 13.6 µM (inactive) | 6.3 µM (inactive) | 2.81 µM (inactive) | 4.79 µM (inactive) | 11.9 µM (inactive) | 10.4 µM (inactive) | 10.6 µM (inactive) | 6.27 µM (inactive) | – | – |
| O=C(CC1(O)C(=O)Nc2ccc([N+](=O)[O-])cc21)c1ccncc1 (stereo unspecified) | 19.3 µM (inactive) | 80.2 µM (inactive) | 51.3 µM (inactive) | – | > 100 µM (inactive) | 34 µM (inactive) | – | 36.7 µM (inactive) | 29.2 µM (inactive) | 85.1 µM (inactive) | – | > 100 µM (inactive) | 30.5 µM (inactive) | 20.1 µM (inactive) | 54.3 µM (inactive) | > 100 µM (inactive) | 83 µM (inactive) | > 100 µM (inactive) | 47.2 µM (inactive) | – |
| CCOC(=O)c1cc(C2CCN(Cc3ccccc3)C2=O)c(C(=O)C(=[N+]=[N-])C(C)=O)[nH]1 (stereo unspecified) | > 100 µM (inactive) | > 100 µM (inactive) | > 100 µM (inactive) | – | > 100 µM (inactive) | > 100 µM (inactive) | > 100 µM (inactive) | > 100 µM (inactive) | > 100 µM (inactive) | > 100 µM (inactive) | > 100 µM (inactive) | > 100 µM (inactive) | – | > 100 µM (inactive) | > 100 µM (inactive) | > 100 µM (inactive) | > 100 µM (inactive) | > 100 µM (inactive) | – | > 100 µM (inactive) |
| CC1(C)OC2OC(C(COS(=O)(=O)C(F)(F)F)N=[N+]=[N-])C(OC(=O)c3ccccc3)C2O1 (stereo unspecified) | > 100 µM (inactive) | > 100 µM (inactive) | > 100 µM (inactive) | – | > 100 µM (inactive) | > 100 µM (inactive) | > 100 µM (inactive) | > 100 µM (inactive) | > 100 µM (inactive) | > 100 µM (inactive) | > 100 µM (inactive) | > 100 µM (inactive) | – | > 100 µM (inactive) | > 100 µM (inactive) | > 100 µM (inactive) | > 100 µM (inactive) | > 100 µM (inactive) | – | > 100 µM (inactive) |
